ChEMBL document CHEMBL1201862, “PubChem BioAssay data set” (2004)
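Exposure lasted 48 hours, with cells grown in 96-well plates and compounds tested at five concentrations. GI50 = concentration required for 50% inhibition of growth.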 The source made the active and inactive calls. Rule as the data show it: active = GI50 up to about 1.1 µM and inactive = higher.

How the values were obtained:
Experiment in all cases: NCI anticancer screen, dose series, 48 h
786-0 = tested on: 786-0
A498 = tested on: A498
A549 = tested on: A549
CCRF-CEM = tested on: CCRF-CEM
DU-145 = tested on: DU-145
HCT-15 = tested on: HCT-15
HT-29 = tested on: HT-29
Hs-578T = tested on: Hs-578T
MDA-N = tested on: MDA-N
MOLT-4 = tested on: MOLT-4
NCI-H226 = tested on: NCI-H226
NCI-H23 = tested on: NCI-H23
NCI-H522 = tested on: NCI-H522
RXF 393 = tested on: RXF 393
SN12C = tested on: SN12C
SNB-19 = tested on: SNB-19
SNB-75 = tested on: SNB-75
SW-620 = tested on: SW-620
UACC-62 = tested on: UACC-62
UO-31 = tested on: UO-31

In the case of `C=CC[C@H]1[C@H](O[Si](C)(C)C(C)(C)C)C=CC(=O)[C@@H]1CC(=O)OCC`, the GI50 (786-0) is reported as 14.5 µM (inactive), the GI50 (A498) is reported as 13.7 µM (inactive) and the GI50 (A549) is reported as 11.7 µM (inactive). For the same compound, the GI50 (CCRF-CEM) was 12 µM (inactive), the GI50 (DU-145) was 16.4 µM (inactive) and the GI50 (HCT-15) was 13.5 µM. The GI50 (HT-29) was 9.06 µM (inactive), the GI50 (Hs-578T) was 19 µM (inactive) and the GI50 (MDA-N) was 15.7 µM (inactive). For the same compound, the GI50 (MOLT-4) was 22 µM (inactive), the GI50 (NCI-H226) was 14.8 µM (inactive) and the GI50 (NCI-H23) was 15.5 µM (inactive). The GI50 (NCI-H522) was 12.5 µM (inactive), the GI50 (RXF 393) was 12.2 µM (inactive) and the GI50 (SN12C) was 16.3 µM (inactive). The GI50 (SNB-19) was 13 µM (inactive), the GI50 (SNB-75) was 16.3 µM (inactive) and the GI50 (SW-620) was 15.5 µM (inactive). The GI50 (UACC-62) was 11.9 µM (inactive) and the GI50 (UO-31) was 12.9 µM (inactive).

With `N#Cc1nc(-c2ccccn2)c(-c2ccccn2)nc1C#N` the GI50 (786-0) was 0.515 µM (active), the GI50 (A498) was 2.09 µM (inactive) and the GI50 (A549) was 1.14 µM (inactive). The GI50 (CCRF-CEM) was 2.69 µM (inactive), the GI50 (DU-145) was 2.32 µM (inactive) and the GI50 (HCT-15) was 0.682 µM. The GI50 (HT-29) was 2.82 µM (inactive), the GI50 (Hs-578T) was 11.2 µM (inactive) and the GI50 (MDA-N) was 2.61 µM (inactive). For the same compound, the GI50 (MOLT-4) was 4.19 µM (inactive), the GI50 (NCI-H226) was 0.593 µM (active) and the GI50 (NCI-H23) was 2.9 µM (inactive). The GI50 (NCI-H522) was 1.64 µM (inactive), the GI50 (RXF 393) was 3.58 µM (inactive) and the GI50 (SN12C) was 4.82 µM (inactive). The GI50 (SNB-19) was 4.1 µM (inactive), the GI50 (SNB-75) was 8.05 µM (inactive) and the GI50 (SW-620) was 3.08 µM (inactive). For the same compound, the GI50 (UACC-62) was 0.47 µM (active) and the GI50 (UO-31) was 1.3 µM (inactive).

With `Nc1nc(Cl)c(N)c(NCC2(CO)CC(OCc3ccccc3)C2)n1` (stereo not given) the GI50 (786-0) was > 100 µM (inactive), the GI50 (A498) was 76.4 µM (inactive) and the GI50 (A549) was > 100 µM (inactive). For the same compound, the GI50 (CCRF-CEM) was > 100 µM (inactive), the GI50 (DU-145) was > 100 µM (inactive) and the GI50 (HCT-15) was over 100 µM. The GI50 (HT-29) was > 100 µM (inactive), the GI50 (Hs-578T) was > 100 µM (inactive) and the GI50 (MDA-N) was > 100 µM (inactive). The GI50 (MOLT-4) was > 100 µM (inactive), the GI50 (NCI-H226) was > 100 µM (inactive) and the GI50 (NCI-H23) was 4.17 µM (inactive). The GI50 (NCI-H522) was > 100 µM (inactive), the GI50 (RXF 393) was > 100 µM (inactive) and the GI50 (SN12C) was > 100 µM (inactive). For the same compound, the GI50 (SNB-19) was > 100 µM (inactive), the GI50 (SNB-75) was 70 µM (inactive) and the GI50 (SW-620) was > 100 µM (inactive). For the same compound, the GI50 (UACC-62) was > 100 µM (inactive) and the GI50 (UO-31) was > 100 µM (inactive).

For `O=c1[nH]nc(Cc2ccccc2)n1C1CC1`, the GI50 (786-0) was > 100 µM (inactive), the GI50 (A498) was > 100 µM (inactive) and the GI50 (A549) was > 100 µM (inactive). For the same compound, the GI50 (CCRF-CEM) was > 100 µM (inactive), the GI50 (DU-145) was > 100 µM (inactive) and the GI50 (HCT-15) was over 100 µM. For the same compound, the GI50 (HT-29) was > 100 µM (inactive), the GI50 (Hs-578T) was > 100 µM (inactive) and the GI50 (MDA-N) was > 100 µM (inactive). The GI50 (MOLT-4) was > 100 µM (inactive), the GI50 (NCI-H226) was > 100 µM (inactive) and the GI50 (NCI-H23) was > 100 µM (inactive). For the same compound, the GI50 (NCI-H522) was > 100 µM (inactive), the GI50 (RXF 393) was > 100 µM (inactive) and the GI50 (SN12C) was > 100 µM (inactive). The GI50 (SNB-19) was > 100 µM (inactive), the GI50 (SNB-75) was > 100 µM (inactive) and the GI50 (SW-620) was > 100 µM (inactive). For the same compound, the GI50 (UACC-62) was > 100 µM (inactive) and the GI50 (UO-31) was 61.7 µM (inactive).

For `O=C(O)c1cc(-c2ccc3c(O)c(O)ccc3c2)ccc1O`, the GI50 (786-0) was 31.7 µM (inactive), the GI50 (A498) was 72.9 µM (inactive) and the GI50 (A549) was 66.4 µM (inactive). The GI50 (CCRF-CEM) was 12.3 µM (inactive), the GI50 (DU-145) was > 75 µM (inactive) and the GI50 (HCT-15) was 41.3 µM. The GI50 (HT-29) was 18.6 µM (inactive), the GI50 (Hs-578T) was > 75 µM (inactive) and the GI50 (MDA-N) was 25.2 µM (inactive). The GI50 (MOLT-4) was 12.6 µM (inactive), the GI50 (NCI-H226) was 28 µM (inactive) and the GI50 (NCI-H23) was 43.6 µM (inactive). The GI50 (NCI-H522) was 38.5 µM (inactive), the GI50 (RXF 393) was 17.4 µM (inactive) and the GI50 (SN12C) was 14.8 µM (inactive). The GI50 (SNB-19) was > 75 µM (inactive), the GI50 (SNB-75) was > 75 µM (inactive) and the GI50 (SW-620) was 15 µM (inactive). For the same compound, the GI50 (UACC-62) was 27 µM (inactive) and the GI50 (UO-31) was > 75 µM (inactive).

For `Cn1c(=O)oc2cc(C(=O)CSC(=S)N3CCCCCC3)ccc21`, the GI50 (786-0) was > 100 µM (inactive), the GI50 (A498) was 6.93 µM (inactive) and the GI50 (A549) was > 100 µM (inactive). The GI50 (CCRF-CEM) was 75.5 µM (inactive), the GI50 (DU-145) was > 100 µM (inactive) and the GI50 (HCT-15) was 81.1 µM. The GI50 (HT-29) was 18.7 µM (inactive), the GI50 (Hs-578T) was 19 µM (inactive) and the GI50 (MDA-N) was > 100 µM (inactive). For the same compound, the GI50 (MOLT-4) was 41.3 µM (inactive), the GI50 (NCI-H226) was > 100 µM (inactive) and the GI50 (NCI-H23) was > 100 µM (inactive). The GI50 (NCI-H522) was > 100 µM (inactive), the GI50 (RXF 393) was > 100 µM (inactive) and the GI50 (SN12C) was > 100 µM (inactive). The GI50 (SNB-19) was > 100 µM (inactive), the GI50 (SNB-75) was > 100 µM (inactive) and the GI50 (SW-620) was > 100 µM (inactive). The GI50 (UACC-62) was > 100 µM (inactive) and the GI50 (UO-31) was > 100 µM (inactive).
